Calls of active or inactive are those of the source. Rule as the data show it, for most assays here: actives have a measured EC50 and inactives only a lower limit.
Key:
[1] = target: Luciferin 4-monooxygenase (Photinus pyralis, UniProt P08659); assay: firefly luciferase enzyme inhibitors, dose response, biochemical, luminescence (AID 1891)
[2] = Luminescence Cell-Based Dose Confirmation HTS to Identify Inhibitors of Platelet Dense Granule Release. [Related pubchem assays: 1663 (Primary HTS), 1678 (Summary of Project)]; assay type: functional
[3] = HepG2 cell cytotoxicity, dose response, cytotoxicity control, cherry-picked samples (AID 1159577); assay type: functional, cell-based
[4] = target: T1, Heat shock factor protein 1 (Mus musculus, UniProt P38532); assay: inhibition of MG132-induced HSE-luciferase signal, confirmation, cell-based, NIH3T3, luminescence, dose retest (AID 2382); assay type: functional;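 also: NIH3T3 fibroblasts with HSF1-driven luciferase reporter stressed by proteasome inhibitor MG132; luminescence from HSF1-driven luciferase expression after 8 hours of MG132 stress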
T1 sequence (P38532 whole entry): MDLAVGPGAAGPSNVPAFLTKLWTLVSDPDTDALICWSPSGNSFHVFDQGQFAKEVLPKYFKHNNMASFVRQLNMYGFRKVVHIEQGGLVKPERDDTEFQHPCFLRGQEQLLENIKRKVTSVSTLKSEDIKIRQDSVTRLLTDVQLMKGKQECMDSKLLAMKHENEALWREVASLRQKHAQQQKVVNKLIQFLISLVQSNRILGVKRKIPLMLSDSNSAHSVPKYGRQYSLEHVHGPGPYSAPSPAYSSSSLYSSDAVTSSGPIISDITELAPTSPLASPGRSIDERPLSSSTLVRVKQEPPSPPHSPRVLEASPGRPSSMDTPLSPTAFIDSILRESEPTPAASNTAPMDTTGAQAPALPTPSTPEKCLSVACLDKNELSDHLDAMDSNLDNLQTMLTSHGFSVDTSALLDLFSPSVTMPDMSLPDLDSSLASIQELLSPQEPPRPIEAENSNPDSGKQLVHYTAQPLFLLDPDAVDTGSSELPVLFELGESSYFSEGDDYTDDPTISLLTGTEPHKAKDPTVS

[5] = Luminescence Cell-Based Dose Retest to Confirm Inhibitors of Cancer Stem Cells. [Related pubchem assays (depositor defined):AID2717, AID2721]; assay type: functional; details: Homo sapiens
[6] = target: T2, Replicative DNA helicase DnaB (Mycobacterium tuberculosis, UniProt P9WMR3); assay: DnaB intein splicing inhibitors, dose response, biochemical, cell-free fluorescence (AID 449749); assay type: functional
T2 sequence (P9WMR3 whole entry): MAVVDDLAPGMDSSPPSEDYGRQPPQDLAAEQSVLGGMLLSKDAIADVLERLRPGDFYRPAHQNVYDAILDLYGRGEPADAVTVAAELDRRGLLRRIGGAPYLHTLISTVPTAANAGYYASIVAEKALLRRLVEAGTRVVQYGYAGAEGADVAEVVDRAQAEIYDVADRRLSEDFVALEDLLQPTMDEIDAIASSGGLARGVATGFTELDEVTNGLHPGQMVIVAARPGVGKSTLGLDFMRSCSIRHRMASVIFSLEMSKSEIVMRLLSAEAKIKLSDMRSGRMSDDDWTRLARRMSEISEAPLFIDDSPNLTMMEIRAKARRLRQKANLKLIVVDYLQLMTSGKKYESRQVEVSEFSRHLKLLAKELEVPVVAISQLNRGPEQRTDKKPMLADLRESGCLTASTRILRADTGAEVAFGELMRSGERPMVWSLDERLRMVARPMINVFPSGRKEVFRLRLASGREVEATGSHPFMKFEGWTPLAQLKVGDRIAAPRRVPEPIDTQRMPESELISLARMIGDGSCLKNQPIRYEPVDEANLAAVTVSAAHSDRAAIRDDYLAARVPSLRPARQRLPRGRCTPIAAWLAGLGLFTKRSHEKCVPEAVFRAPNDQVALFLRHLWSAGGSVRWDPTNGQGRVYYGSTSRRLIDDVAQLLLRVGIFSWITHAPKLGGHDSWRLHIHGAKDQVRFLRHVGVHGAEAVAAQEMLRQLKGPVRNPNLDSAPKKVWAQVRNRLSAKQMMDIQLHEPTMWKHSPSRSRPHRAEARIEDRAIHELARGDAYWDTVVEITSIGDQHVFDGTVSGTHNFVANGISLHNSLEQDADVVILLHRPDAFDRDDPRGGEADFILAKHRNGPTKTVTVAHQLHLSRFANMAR

[7] = target: T3, Protein RecA (Mycobacterium tuberculosis, UniProt P9WHJ3); assay: Fluorescence Cell-Free Homogeneous Dose Retest to Identify Inhibitors of RecA-Intein Splicing Activity. [Related pubchem assays (depositor defined):AID2097, AID2223, AID489010, AID492950]; assay type: functional
T3 sequence (P9WHJ3 whole entry): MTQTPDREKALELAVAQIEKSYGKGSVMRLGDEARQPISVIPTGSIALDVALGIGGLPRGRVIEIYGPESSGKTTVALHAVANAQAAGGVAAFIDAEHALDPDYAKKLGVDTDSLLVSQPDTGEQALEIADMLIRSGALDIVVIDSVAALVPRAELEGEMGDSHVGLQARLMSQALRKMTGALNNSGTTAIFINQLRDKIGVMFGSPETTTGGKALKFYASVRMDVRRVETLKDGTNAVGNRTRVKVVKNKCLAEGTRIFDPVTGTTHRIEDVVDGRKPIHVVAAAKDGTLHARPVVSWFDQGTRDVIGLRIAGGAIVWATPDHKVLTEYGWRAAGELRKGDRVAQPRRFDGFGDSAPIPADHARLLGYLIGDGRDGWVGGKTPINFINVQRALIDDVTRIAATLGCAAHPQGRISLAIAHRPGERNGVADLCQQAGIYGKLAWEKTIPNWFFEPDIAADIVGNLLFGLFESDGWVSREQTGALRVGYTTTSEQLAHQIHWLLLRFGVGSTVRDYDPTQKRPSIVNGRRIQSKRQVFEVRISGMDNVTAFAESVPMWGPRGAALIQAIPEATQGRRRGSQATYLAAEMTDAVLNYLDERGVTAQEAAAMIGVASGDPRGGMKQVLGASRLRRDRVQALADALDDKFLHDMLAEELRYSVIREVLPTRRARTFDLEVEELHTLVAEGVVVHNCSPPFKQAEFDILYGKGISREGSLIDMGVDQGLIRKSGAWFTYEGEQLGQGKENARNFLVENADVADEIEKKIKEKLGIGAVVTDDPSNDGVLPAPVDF

[8] = HepG2 cell cytotoxicity, dose response, cytotoxicity control, plate reader, cherry-pick, antagonist series (AID 743416); assay type: functional, cell-based
[9] = HEK293 cell cytotoxicity, dose response, cytotoxicity control, plate reader, cherry-picked samples (AID 743446); assay type: functional, cell-based
[10] = P. falciparum Dd2 growth inhibitors, dose response, SYBR Green, cherry-picked samples (AID 1159567); assay type: functional, cell-based
[11] = target: Induced myeloid leukemia cell differentiation protein Mcl-1 (Homo sapiens, UniProt Q07820); assay type: functional
Sequence of Induced myeloid leukemia cell differentiation protein Mcl-1 (Q07820 whole entry): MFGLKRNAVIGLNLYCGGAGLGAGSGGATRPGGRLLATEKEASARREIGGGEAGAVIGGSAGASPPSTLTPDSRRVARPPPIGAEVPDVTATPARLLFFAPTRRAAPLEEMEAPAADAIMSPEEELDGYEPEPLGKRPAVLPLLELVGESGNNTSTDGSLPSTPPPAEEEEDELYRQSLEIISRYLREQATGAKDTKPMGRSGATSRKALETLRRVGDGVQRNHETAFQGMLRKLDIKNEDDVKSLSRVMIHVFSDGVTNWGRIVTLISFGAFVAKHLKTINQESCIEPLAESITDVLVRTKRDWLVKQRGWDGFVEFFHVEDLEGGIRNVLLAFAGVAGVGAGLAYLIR

[12] = target: Genome polyprotein (dengue virus type 2, UniProt P29990); assay: Dengue-2 NS5 methyltransferase inhibitors, primary screen, biochemical, confirmation dose response (AID 588689); assay type: functional
Sequence of Genome polyprotein (P29990 2492-3391 limits assumed): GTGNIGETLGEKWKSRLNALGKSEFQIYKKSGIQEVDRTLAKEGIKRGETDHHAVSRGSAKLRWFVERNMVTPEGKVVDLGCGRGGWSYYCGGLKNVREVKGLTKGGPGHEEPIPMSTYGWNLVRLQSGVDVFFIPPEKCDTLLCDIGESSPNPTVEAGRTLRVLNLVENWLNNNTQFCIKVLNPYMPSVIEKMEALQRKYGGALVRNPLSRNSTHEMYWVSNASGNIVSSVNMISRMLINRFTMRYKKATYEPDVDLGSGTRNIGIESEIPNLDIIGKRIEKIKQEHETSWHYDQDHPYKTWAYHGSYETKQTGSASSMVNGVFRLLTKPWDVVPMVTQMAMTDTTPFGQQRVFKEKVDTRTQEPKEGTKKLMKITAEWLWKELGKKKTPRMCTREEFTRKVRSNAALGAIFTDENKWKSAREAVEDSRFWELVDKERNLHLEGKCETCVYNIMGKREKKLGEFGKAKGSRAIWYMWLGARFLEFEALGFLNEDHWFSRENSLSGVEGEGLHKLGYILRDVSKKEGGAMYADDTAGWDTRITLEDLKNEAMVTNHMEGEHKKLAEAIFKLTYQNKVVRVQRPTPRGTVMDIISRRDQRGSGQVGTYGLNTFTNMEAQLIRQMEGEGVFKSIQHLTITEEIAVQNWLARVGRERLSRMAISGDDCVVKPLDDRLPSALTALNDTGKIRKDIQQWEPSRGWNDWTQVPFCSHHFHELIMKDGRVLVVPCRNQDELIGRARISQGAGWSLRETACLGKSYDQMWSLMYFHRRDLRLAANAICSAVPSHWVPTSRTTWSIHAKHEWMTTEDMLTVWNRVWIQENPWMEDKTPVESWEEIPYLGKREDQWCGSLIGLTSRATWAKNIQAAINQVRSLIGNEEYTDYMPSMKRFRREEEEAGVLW

[13] = target: T4, Polyadenylate-binding protein 1 (Homo sapiens, UniProt P11940); assay: PABP1 MLLE–PAM2 interaction inhibitors, dose response, miRNA deadenylation inhibitor project, biochemical, fluorescence polarization, Cy5-PAM2 peptide, secondary (AID 602260); assay type: functional; details: read-out: IC50_Mean
T4 sequence (P11940 whole entry): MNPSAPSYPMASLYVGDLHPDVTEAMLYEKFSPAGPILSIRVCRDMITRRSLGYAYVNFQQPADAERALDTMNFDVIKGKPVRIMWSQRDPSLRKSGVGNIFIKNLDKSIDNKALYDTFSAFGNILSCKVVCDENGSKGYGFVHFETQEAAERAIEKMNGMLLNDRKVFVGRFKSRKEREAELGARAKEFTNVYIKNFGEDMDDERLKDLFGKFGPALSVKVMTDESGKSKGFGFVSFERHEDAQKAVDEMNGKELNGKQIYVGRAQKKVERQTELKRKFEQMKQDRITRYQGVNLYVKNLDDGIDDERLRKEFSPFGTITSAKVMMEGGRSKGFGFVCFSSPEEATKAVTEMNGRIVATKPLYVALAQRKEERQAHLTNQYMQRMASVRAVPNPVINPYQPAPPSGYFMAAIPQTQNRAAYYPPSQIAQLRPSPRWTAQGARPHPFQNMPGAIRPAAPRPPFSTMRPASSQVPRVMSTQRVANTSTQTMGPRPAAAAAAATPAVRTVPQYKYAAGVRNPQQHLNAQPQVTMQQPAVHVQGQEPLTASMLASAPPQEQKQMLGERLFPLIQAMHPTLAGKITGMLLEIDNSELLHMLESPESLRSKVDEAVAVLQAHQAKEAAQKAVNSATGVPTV

[14] = target: T4, Polyadenylate-binding protein 1; assay: PABP1 MLLE–PAM2 binding inhibitor potency, dose response, biochemical, fluorescence polarization, FITC-PAM2 peptide (AID 602259); assay type: functional; details: read-out: IC50_Mean
[15] = target: T5, Histone-lysine N-methyltransferase NSD2 (Homo sapiens, UniProt O96028); assay type: biochemical
T5 sequence (O96028 whole entry): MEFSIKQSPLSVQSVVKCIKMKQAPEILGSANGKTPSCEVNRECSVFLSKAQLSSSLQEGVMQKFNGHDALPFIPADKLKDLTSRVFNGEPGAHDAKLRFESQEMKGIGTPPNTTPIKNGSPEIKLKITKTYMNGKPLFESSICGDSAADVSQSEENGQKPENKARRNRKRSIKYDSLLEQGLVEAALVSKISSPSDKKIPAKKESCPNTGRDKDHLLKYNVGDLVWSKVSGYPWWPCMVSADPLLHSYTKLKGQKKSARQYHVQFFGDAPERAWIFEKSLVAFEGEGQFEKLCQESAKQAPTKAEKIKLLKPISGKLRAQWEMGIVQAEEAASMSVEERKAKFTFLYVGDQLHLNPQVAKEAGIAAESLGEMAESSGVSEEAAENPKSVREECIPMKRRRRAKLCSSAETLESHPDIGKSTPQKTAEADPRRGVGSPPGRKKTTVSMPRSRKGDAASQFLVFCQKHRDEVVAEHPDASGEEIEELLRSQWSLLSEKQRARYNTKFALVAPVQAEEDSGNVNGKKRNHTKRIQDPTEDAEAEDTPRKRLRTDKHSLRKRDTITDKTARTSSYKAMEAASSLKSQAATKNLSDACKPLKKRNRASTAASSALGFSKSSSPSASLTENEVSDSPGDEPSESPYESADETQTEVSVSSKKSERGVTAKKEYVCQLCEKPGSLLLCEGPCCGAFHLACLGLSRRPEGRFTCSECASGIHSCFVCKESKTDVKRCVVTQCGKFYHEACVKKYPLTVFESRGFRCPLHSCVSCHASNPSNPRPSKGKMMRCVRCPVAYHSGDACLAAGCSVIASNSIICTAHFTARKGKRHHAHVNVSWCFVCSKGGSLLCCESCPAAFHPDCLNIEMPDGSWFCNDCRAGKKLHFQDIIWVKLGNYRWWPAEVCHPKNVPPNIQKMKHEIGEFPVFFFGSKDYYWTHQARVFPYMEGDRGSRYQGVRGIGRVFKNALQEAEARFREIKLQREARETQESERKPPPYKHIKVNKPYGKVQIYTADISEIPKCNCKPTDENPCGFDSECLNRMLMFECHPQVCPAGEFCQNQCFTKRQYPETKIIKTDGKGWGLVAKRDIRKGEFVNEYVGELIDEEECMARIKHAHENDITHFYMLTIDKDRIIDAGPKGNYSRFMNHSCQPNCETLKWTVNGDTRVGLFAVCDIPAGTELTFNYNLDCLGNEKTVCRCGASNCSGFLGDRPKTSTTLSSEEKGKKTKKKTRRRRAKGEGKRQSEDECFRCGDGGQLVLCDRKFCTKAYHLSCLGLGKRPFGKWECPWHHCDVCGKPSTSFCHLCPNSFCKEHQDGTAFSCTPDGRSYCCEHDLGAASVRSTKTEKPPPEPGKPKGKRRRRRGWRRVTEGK

[16] = inhibitors of firefly luciferase expression or activity, dose response, H4 neuroglioma cells, luminescence (AID 1990); assay type: functional, cell-based
[17] = test system: Streptococcus sp. 'group A'; assay: growth inhibition of control SK(-) GAS strain, dose response, counter-screen for streptokinase expression inhibitor project, luminescence, kanamycin, BacTiterGlo, confirmation (AID 1900); assay type: functional, organism-based
[18] = test system: BJ; assay: cytotoxicity toward BJ-TERT fibroblasts, dose response, cell-based, RAS-independent, luminescence (AID 1933); assay type: functional; details: Homo sapiens
[19] = Luminescence Cell-Based Dose Response HTS to Identify Inhibitors of 5'UTR Stem-Loop Driven Prion Protein mRNA Translation in H4 Neuroglioblastoma Cells. [Related pubchem assays: 1827 (Project Summary), 1813 (Primary HTS)]; assay type: functional
[20] = inhibitors of SNCA 5'UTR-driven reporter translation, confirmation, H4 neuroglioma cells, luminescence (AID 1988); assay type: functional, cell-based
[21] = test system: BJ; assay: cells; assay type: functional, cell-based; details: Homo sapiens
[22] = test system: BJ; assay: cytotoxicity toward BJ-TERT-LT-ST fibroblasts, dose response, cell-based, RAS-independent, luminescence (AID 1935); assay type: functional; details: Homo sapiens;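 also: BJ fibroblasts immortalized with TERT plus LT and ST oncogenes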
[23] = cytotoxicity toward DRD oncogenic fibroblasts, dose response, cell-based, non-viral oncogenic, luminescence (AID 1934); assay type: functional; details: Homo sapiens
[24] = test system: Streptococcus; assay: Group A Streptococcus viability loss, dose response, counter-screen for streptokinase expression inhibitor project, luminescence, BacTiterGlo (AID 1915); assay type: functional, organism-based;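 also: potency for reduction of bacterial viability or growth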
[25] = test system: BJ; assay: cytotoxicity toward Ras-transformed BJeLR fibroblasts, dose response, cell-based, alamar blue fluorescence, cherrypicked samples (AID 2631); assay type: functional; details: Homo sapiens;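 also: confirmatory dose-response assay in RAS-dependent BJ fibroblasts engineered with TERT, LT and ST, with cytotoxicity read by fluorescence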

Sequence of Luciferin 4-monooxygenase (P08659 whole entry): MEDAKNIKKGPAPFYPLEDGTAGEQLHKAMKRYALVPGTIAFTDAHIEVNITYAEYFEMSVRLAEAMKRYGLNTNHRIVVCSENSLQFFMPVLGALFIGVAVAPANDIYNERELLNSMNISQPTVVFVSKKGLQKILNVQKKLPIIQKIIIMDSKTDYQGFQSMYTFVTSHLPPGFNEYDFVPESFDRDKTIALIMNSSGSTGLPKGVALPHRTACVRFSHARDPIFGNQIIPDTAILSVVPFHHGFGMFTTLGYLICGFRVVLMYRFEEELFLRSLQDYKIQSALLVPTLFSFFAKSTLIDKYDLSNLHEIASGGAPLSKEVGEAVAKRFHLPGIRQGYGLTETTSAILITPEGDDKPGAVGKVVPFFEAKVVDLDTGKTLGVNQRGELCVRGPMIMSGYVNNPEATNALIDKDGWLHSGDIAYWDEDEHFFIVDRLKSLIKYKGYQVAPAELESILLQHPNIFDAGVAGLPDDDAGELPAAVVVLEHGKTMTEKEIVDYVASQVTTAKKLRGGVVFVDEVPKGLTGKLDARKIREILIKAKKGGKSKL

**Q.** Which results are given for `Cc1cc2c(cc1C)NC(c1ccccn1)C1=C(O)CC(C)(C)CC1=N2` (stereo not drawn)?
**A.** EC50 [1]: > 112 µM (not active); EC50 [2]: > 112 µM (not active)

**Q.** Which AC50 [3] does the source give for `CO[C@@H]1CN(C)C(=O)c2cc(NC(=O)c3ccc(Oc4ccccc4)cc3)ccc2OC[C@@H](C)NC[C@@H]1C` here?
**A.** Its AC50 is 20.7 µM (active).

**Q.** Which results are given for `O=S(=O)(Nc1ccc(O)c2ccccc12)c1ccc(OC(F)(F)F)cc1`?
**A.** EC50 [4]: > 195 µM (not active); AC50 [5]: 6.55 µM (active); AC50 [6]: 0.26 µM (active); EC50 [7]: 0.0666 µM (active); AC50 [8]: > 52 µM (inactive); AC50 [9]: 24.9 µM (active)

**Q.** What does the source list for `C[C@H](CO)N1C[C@H](C)[C@@H](CN(C)Cc2ccc3c(c2)OCO3)Oc2ccc(NC(=O)Nc3ccc4c(c3)OCO4)cc2CC1=O`?
**A.** AC50 [10]: 4.28 µM (active); AC50 [3]: > 42 µM (inactive)

**Q.** What does the source list for `CC(=O)c1cc(O)c2ccccc2c1O`?
**A.** IC50 [11]: 5.99 µM (active); AC50 [6]: > 380 µM (inactive); EC50 [7]: 2.82 µM (active); IC50 [12]: 29.7 µM (active); IC50 [13]: > 66 µM (inactive); IC50 [14]: > 66 µM (inactive); AC50 [15]: 10.6 µM (active)

**Q.** Which EC50 [16] does the source give for `CC1(C)N=C(N)N=C(N)N1c1ccccc1` here?
**A.** The EC50 was 6.38 µM (active).

**Q.** What about the EC50 [17] of the same compound?
**A.** The EC50 was 0.357 µM (active).

**Q.** And the EC50 [18]?
**A.** Its EC50 is > 150 µM (not active).

**Q.** And the EC50 [19]?
**A.** Its EC50 is 15.6 µM (active).

**Q.** And the EC50 [20]?
**A.** Its EC50 is 1.62 µM (active).

**Q.** And the EC50 [21]?
**A.** The EC50 was 8.15 µM (active).

**Q.** What about the EC50 [22] of the same compound?
**A.** Its EC50 is > 150 µM (not active).

**Q.** What about the EC50 [23] of the same compound?
**A.** The EC50 was 14.9 µM (active).

**Q.** And the EC50 [24]?
**A.** Its EC50 is 1.3 µM (active).

**Q.** What about the EC50 [25] of the same compound?
**A.** The EC50 was > 133 µM (inactive).
